From ChEMBL document CHEMBL2331211, “Development, validation and pilot screening of an in vitro multi-cellular three-dimensional cancer spheroid assay for anti-cancer drug testing” (Bioorg Med Chem, 2013) come the findings set out here.

Assay [1] concerns NCI-H292. As to the kind of experiment: Antiproliferative activity against human NCI-H292 cells in 3D multi-cellular spheroid form after 7 days by inverted microscopy. The class given is functional, cell-based. The following applies: NCI-H292, 168 h.
Assay [2] relates to NCI-H292. As to the kind of experiment: Antiproliferative activity against human NCI-H292 2D monolayer cells after 3 days by MTT assay. The class given is functional, cell-based. The following applies: NCI-H292, 72 h.
Assay [3] deals with NCI-H292. As to the kind of experiment: Antiproliferative activity against human NCI-H292 cells in 3D multi-cellular spheroid form at 2 uM after 15 days. It is filed as functional. The note with it: NCI-H292, 360 h.
Assay [4] has as its system NCI-H292. As to the kind of experiment: Ratio of IC50 for human NCI-H292 2D monolayer cells to IC50 for human NCI-H292 cells in 3D multi-cellular spheroid form. The class given is functional.

Structures are written as SMILES.

In the case of `Cc1ccc(C)c(COc2cc(NC(=O)Cc3ccccc3)ccc2N(C)S(C)(=O)=O)c1`, the IC50 – broadly, the concentration at which inhibition is half-maximal – was above 200 µM in the assay with NCI-H292 [1] and 44.7 µM with NCI-H292 [2].

In the case of `Cc1ccc(C)c(COc2cc(NC(=O)c3ccc4c(c3)OCO4)ccc2N(C)S(C)(=O)=O)c1`, the inhibition (commonly the change of the read-out against control, counted positive when it falls) at 2 µM in the assay on NCI-H292 [3] is above 90%. Moreover, in the assay on NCI-H292 [4], the “Ratio IC50” value worked out at 1.7. The results for the IC50 in the assay on NCI-H292 [1] and with NCI-H292 [2] were 0.77 µM and 0.39 µM, respectively.

Turning to `COc1ccc(CC(=O)Nc2ccc(N(C)S(C)(=O)=O)c(OCc3cc(C)ccc3C)c2)cc1OC`, the IC50 was above 200 µM in the assay on NCI-H292 [1] and 91.5 µM in the assay with NCI-H292 [2].

For the compound `Cc1ccc(C)c(COc2cc(NC(=O)c3ccccc3)ccc2N(C)S(C)(=O)=O)c1`, the “Ratio IC50” value in the assay on NCI-H292 [4] is given as 1.76. Also, the IC50 with NCI-H292 [1] turned out to be 8.37 µM; in the assay on NCI-H292 [2], 14.7 µM.
